Reference: patent US4342751A (priority 1981, dated 1982)
Numbered stars: 1 amine (or outer) side, 2 acyl side, 3 side chain; on linkers, the order of the positions; unused ones are H or OH. Square brackets hold non-standard residues; d marks the D form. Peptide text beside a SMILES is read from it. X1 = CCC(N[*:1])C(C)C(=O)O[C@H](C(=O)[*:2])[C@@H](C)CC; X2 = C[C@H](N[*:1])C(=O)C(C)(C)C(=O)[*:2]; NMeY = CN[C@@H](Cc1ccc(O)cc1)C(=O)O; NMeI = CC[C@H](C)[C@H](NC)C(=O)O; NMeV = CN[C@H](C(=O)O)C(C)C

Assays:
[1] = system: Plasmopora viticola
[2] = system: Grape leaves (C. V. Niagara); details: in vivo

Structure (SMILES): CCC1NC(=O)[C@H](C)NC(=O)C(C)(C)C(=O)[C@H](C)NC(=O)[C@H](Cc2ccc(OC)cc2)N(C)C(=O)[C@H](C(C)C)N(C)C(=O)CNC(=O)[C@H]([C@@H](C)CC)N(C)C(=O)CNC(=O)[C@H]([C@@H](C)CC)OC(=O)C1C (stereo partly drawn) [Majusculamide C, majusculamide C] (cyclo(A[X1]G[NMeI]G[NMeV][NMeY](Me)[X2]))
- In vivo effectiveness against grape downy mildew [1]: effective
- Control of fungus ([1]; in vivo): control
- Phytotoxicity rating, grape leaves [2]: 0
